Reference: paper PMC8632988, “Inhibition of SYK and cSrc kinases can protect bone and cartilage in preclinical models of osteoarthritis and rheumatoid arthritis” (Scientific Reports, 2021)

What was measured:
Experiment in all cases: Kinase selectivity profile assay
Assay type in all cases: biochemical
TLK1 = target: T1, TLK1 (Homo sapiens, UniProt Q9UKI8); details: 500 nM; relative to DMSO; read-out: Residual enzymatic activity
T1 construct: purchased Reaction Biology Corporation
Outline: (§1)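 Radiometric kinase assay run by a standard protocol. Unbound phosphate was removed by washing filters in phosphoric acid, and product radioactivity gave percent remaining kinase activity versus DMSO vehicle reactions. Run in duplicate.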

NEK7 = target: T2, NEK7 (Homo sapiens, UniProt Q8TDX7); details: 500 nM; relative to DMSO; read-out: Residual enzymatic activity
T2 construct: purchased Reaction Biology Corporation
Outline: as §1

EPHA4 = target: T3, EPHA4 (Homo sapiens, UniProt P54764); details: 500 nM, relative to DMSO
T3 construct: purchased Reaction Biology Corporation
Outline: as §1

ASK1/MAP3K5 = target: T4, ASK1/MAP3K5 (Homo sapiens, UniProt Q99683); details: 500 nM; relative to DMSO; read-out: Residual enzymatic activity
T4 construct: purchased Reaction Biology Corporation
Outline: as §1

PLK3 = target: T5, PLK3 (Homo sapiens, UniProt Q9H4B4); details: 500 nM; relative to DMSO; read-out: Residual enzymatic activity
T5 construct: purchased Reaction Biology Corporation
Outline: as §1

STK32C/YANK3 = target: T6, STK32C/YANK3 (Homo sapiens, UniProt Q86UX6); details: 500 nM; relative to DMSO; read-out: Residual enzymatic activity
T6 construct: purchased Reaction Biology Corporation
Outline: as §1

KHS/MAP4K5 = target: T7, KHS/MAP4K5 (Homo sapiens, UniProt Q9Y4K4); details: 500 nM; relative to DMSO; read-out: Residual enzymatic activity
T7 construct: purchased Reaction Biology Corporation
Outline: as §1

HIPK2 = target: T8, HIPK2 (Homo sapiens, UniProt Q9H2X6); details: 500 nM; relative to DMSO; read-out: Residual enzymatic activity
T8 construct: purchased Reaction Biology Corporation
Outline: as §1

IR = target: T9, IR (Homo sapiens, UniProt P06213); details: 500 nM; relative to DMSO; read-out: Residual enzymatic activity
T9 construct: purchased Reaction Biology Corporation
Outline: as §1

MLK1/MAP3K9 = target: T10, MLK1/MAP3K9 (Homo sapiens, UniProt P80192)
T10 construct: purchased Reaction Biology Corporation (assay service)
Outline: as §1

P38d/MAPK13 = target: T11, P38d/MAPK13 (Homo sapiens, UniProt O15264); details: 500 nM; relative to DMSO; read-out: Residual enzymatic activity
T11 construct: purchased Reaction Biology Corporation
Outline: as §1

FGFR1 = target: T12, FGFR1 (Homo sapiens, UniProt P11362); details: 500 nM; relative to DMSO
T12 construct: purchased Reaction Biology Corporation
Outline: as §1

P38b/MAPK11 = target: T13, P38b/MAPK11 (Homo sapiens, UniProt Q15759); details: 500 nM; relative to DMSO; read-out: Residual enzymatic activity
T13 construct: purchased Reaction Biology Corporation
Outline: as §1

GRK4 = target: T14, GRK4 (Homo sapiens, UniProt P32298); details: 500 nM; relative to DMSO; read-out: Residual enzymatic activity
T14 construct: purchased Reaction Biology Corporation
Outline: as §1

TIE2/TEK = target: T15, TIE2/TEK (Homo sapiens, UniProt Q02763); details: 500 nM; relative to DMSO
T15 construct: purchased Reaction Biology Corporation
Outline: as §1

HCK = target: T16, HCK (Homo sapiens, UniProt P08631)
T16 construct: purchased Reaction Biology Corporation (assay service)
Outline: as §1

RAF1 = target: T17, RAF1 (Homo sapiens, UniProt P04049); details: 500 nM; relative to DMSO; read-out: Residual enzymatic activity
T17 construct: purchased Reaction Biology Corporation
Outline: as §1

DDR2 = target: T18, DDR2 (Homo sapiens, UniProt Q16832); details: 500 nM; relative to DMSO; read-out: Residual enzymatic activity
T18 construct: purchased Reaction Biology Corporation
Outline: as §1

PKN2/PRK2 = target: T19, PKN2/PRK2 (Homo sapiens, UniProt Q16513); details: 500 nM; relative to DMSO; read-out: Residual enzymatic activity
T19 construct: purchased Reaction Biology Corporation
Outline: as §1

ERK2/MAPK1 = target: T20, ERK2/MAPK1 (Homo sapiens, UniProt P28482); details: 500 nM; relative to DMSO; read-out: Residual enzymatic activity
T20 construct: purchased Reaction Biology Corporation
Outline: as §1

CK1epsilon = target: T21, CK1epsilon (Homo sapiens, UniProt P49674); details: 500 nM; relative to DMSO; read-out: Residual enzymatic activity
T21 construct: purchased Reaction Biology Corporation
Outline: as §1

SRPK2 = target: T22, SRPK2 (Homo sapiens, UniProt P78362); details: 500 nM; relative to DMSO; read-out: Residual enzymatic activity
T22 construct: purchased Reaction Biology Corporation
Outline: as §1

ALK2/ACVR1 = target: T23, ALK2/ACVR1 (Homo sapiens, UniProt Q04771); details: 500 nM; relative to DMSO; read-out: Residual enzymatic activity
T23 construct: purchased Reaction Biology Corporation
Outline: as §1

COT1/MAP3K8 = target: T24, COT1/MAP3K8 (Homo sapiens, UniProt P41279); details: 500 nM; relative to DMSO; read-out: Residual enzymatic activity
T24 construct: purchased Reaction Biology Corporation
Outline: as §1

PASK = target: T25, PASK (Homo sapiens, UniProt Q96RG2); details: 500 nM; relative to DMSO; read-out: Residual enzymatic activity
T25 construct: purchased Reaction Biology Corporation
Outline: as §1

DCAMKL1 = target: T26, DCAMKL1 (Homo sapiens, UniProt O15075); details: 500 nM; relative to DMSO; read-out: Residual enzymatic activity
T26 construct: purchased Reaction Biology Corporation
Outline: as §1

MEKK3 = target: T27, MEKK3 (Homo sapiens, UniProt Q99759); details: 500 nM; relative to DMSO; read-out: Residual enzymatic activity
T27 construct: purchased Reaction Biology Corporation
Outline: as §1

STK38/NDR1 = target: T28, STK38/NDR1 (Homo sapiens, UniProt Q15208); details: 500 nM; relative to DMSO; read-out: Residual enzymatic activity
T28 construct: purchased Reaction Biology Corporation
Outline: as §1

MRCKa/CDC42BPA = target: T29, MRCKa/CDC42BPA (Homo sapiens, UniProt Q5VT25); details: 500 nM; relative to DMSO; read-out: Residual enzymatic activity
T29 construct: purchased Reaction Biology Corporation
Outline: as §1

SRMS = target: T30, SRMS (Homo sapiens, UniProt Q9H3Y6); details: 500 nM; relative to DMSO; read-out: Residual enzymatic activity
T30 construct: purchased Reaction Biology Corporation
Outline: as §1

CAMK2d = target: T31, CAMK2d (Homo sapiens, UniProt Q13557); details: read-out: Residual enzymatic activity
T31 construct: purchased Reaction Biology Corporation
Outline: as §1

MAPKAPK2 = target: T32, MAPKAPK2 (Homo sapiens, UniProt P49137); details: 500 nM, relative to DMSO
T32 construct: purchased Reaction Biology Corporation
Outline: as §1

PAK5 = target: T33, PAK5 (Homo sapiens, UniProt Q9P286); details: 500 nM; relative to DMSO; read-out: Residual enzymatic activity
T33 construct: purchased Reaction Biology Corporation
Outline: as §1

TYK1/LTK = target: T34, TYK1/LTK (Homo sapiens, UniProt P29376); details: 500 nM; relative to DMSO; read-out: Residual enzymatic activity
T34 construct: purchased Reaction Biology Corporation
Outline: as §1

WNK2 = target: T35, WNK2 (Homo sapiens, UniProt Q9Y3S1); details: 500 nM; relative to DMSO; read-out: Residual enzymatic activity
T35 construct: purchased Reaction Biology Corporation
Outline: as §1

TAOK1 = target: T36, TAOK1 (Homo sapiens, UniProt Q7L7X3); details: 500 nM; relative to DMSO; read-out: Residual enzymatic activity
T36 construct: purchased Reaction Biology Corporation
Outline: as §1

CLK4 = target: T37, CLK4 (Homo sapiens, UniProt Q9HAZ1); details: 500 nM; relative to DMSO; read-out: Residual enzymatic activity
T37 construct: purchased Reaction Biology Corporation
Outline: as §1

c-MER = target: T38, c-MER (Homo sapiens, UniProt Q12866); details: 500 nM; relative to DMSO; read-out: Residual enzymatic activity
T38 construct: purchased Reaction Biology Corporation
Outline: as §1

TTBK2 = target: T39, TTBK2 (Homo sapiens, UniProt Q6IQ55); details: 500 nM; relative to DMSO; read-out: Residual enzymatic activity
T39 construct: purchased Reaction Biology Corporation
Outline: as §1

[1] = read-out: Residual enzymatic activity
[2] = 500 nM, relative to DMSO, read-out: Residual enzymatic activity
[3] = 10-dose mode, threefold serial dilution from 10 μM

T10 sequence (P80192 whole entry): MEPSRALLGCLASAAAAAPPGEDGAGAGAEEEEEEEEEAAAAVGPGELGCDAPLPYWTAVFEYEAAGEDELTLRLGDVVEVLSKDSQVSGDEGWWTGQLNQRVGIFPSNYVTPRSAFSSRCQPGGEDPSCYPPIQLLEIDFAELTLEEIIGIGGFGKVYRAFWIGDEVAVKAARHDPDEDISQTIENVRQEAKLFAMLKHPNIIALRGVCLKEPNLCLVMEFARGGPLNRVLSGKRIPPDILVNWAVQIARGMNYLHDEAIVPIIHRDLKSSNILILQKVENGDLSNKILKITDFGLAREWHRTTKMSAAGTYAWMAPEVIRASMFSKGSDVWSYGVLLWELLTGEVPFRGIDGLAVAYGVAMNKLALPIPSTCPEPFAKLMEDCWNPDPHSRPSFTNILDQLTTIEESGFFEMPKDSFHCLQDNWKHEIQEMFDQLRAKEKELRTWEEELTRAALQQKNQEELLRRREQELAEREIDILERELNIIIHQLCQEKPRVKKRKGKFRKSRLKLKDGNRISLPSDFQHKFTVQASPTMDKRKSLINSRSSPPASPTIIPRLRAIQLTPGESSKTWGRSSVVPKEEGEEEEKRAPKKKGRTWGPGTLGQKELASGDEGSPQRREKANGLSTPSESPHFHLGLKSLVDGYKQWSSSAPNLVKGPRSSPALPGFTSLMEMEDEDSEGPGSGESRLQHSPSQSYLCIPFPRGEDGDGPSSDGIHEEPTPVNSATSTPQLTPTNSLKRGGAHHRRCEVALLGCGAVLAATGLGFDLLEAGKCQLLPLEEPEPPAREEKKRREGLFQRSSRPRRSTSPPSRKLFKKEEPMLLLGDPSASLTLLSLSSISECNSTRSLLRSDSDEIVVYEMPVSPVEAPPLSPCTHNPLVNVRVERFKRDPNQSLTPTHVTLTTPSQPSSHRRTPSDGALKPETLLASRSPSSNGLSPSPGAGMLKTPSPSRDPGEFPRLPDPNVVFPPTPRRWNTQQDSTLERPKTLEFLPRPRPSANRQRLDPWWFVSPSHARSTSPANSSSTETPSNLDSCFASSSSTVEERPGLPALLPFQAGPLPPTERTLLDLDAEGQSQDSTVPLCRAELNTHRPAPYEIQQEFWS
T16 sequence (P08631 whole entry): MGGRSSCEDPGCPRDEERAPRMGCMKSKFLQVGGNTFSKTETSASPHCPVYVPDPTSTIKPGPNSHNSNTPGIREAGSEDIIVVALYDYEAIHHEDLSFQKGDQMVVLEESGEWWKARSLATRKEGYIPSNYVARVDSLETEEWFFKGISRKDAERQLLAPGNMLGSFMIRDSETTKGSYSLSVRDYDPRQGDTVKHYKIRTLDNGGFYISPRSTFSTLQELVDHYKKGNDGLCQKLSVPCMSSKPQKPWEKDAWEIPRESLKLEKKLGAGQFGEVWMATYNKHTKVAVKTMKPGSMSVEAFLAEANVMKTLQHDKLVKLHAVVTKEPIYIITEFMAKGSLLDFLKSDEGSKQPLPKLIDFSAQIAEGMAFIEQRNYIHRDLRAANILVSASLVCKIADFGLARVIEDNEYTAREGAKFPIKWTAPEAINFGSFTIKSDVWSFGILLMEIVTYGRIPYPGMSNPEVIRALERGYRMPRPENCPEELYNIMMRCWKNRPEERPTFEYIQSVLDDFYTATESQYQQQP
T3 sequence (P54764 20-986): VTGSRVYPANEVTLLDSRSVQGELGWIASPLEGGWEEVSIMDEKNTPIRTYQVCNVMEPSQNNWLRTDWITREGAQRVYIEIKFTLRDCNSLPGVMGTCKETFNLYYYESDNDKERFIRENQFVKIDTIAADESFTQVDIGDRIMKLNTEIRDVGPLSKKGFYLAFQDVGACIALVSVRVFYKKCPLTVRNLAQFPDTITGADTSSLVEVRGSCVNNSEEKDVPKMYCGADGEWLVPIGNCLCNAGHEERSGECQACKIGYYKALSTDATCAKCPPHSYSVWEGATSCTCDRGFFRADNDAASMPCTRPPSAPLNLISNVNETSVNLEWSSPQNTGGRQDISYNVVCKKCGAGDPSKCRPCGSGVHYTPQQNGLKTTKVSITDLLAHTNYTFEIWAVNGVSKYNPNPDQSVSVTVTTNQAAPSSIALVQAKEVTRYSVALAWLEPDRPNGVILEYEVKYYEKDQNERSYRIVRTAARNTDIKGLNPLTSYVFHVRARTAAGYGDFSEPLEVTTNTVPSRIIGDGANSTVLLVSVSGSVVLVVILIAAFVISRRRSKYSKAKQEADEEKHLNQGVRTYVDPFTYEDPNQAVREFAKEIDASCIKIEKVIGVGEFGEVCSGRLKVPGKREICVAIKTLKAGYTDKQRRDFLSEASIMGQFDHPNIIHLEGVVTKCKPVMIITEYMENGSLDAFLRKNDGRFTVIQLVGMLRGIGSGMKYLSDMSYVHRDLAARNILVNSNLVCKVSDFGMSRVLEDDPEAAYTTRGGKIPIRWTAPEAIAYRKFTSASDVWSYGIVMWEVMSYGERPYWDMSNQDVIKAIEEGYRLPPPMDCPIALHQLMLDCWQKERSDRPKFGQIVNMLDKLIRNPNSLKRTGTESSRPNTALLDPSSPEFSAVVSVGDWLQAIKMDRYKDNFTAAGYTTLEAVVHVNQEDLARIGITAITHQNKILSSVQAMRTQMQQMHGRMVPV
T32 sequence (P49137 whole entry): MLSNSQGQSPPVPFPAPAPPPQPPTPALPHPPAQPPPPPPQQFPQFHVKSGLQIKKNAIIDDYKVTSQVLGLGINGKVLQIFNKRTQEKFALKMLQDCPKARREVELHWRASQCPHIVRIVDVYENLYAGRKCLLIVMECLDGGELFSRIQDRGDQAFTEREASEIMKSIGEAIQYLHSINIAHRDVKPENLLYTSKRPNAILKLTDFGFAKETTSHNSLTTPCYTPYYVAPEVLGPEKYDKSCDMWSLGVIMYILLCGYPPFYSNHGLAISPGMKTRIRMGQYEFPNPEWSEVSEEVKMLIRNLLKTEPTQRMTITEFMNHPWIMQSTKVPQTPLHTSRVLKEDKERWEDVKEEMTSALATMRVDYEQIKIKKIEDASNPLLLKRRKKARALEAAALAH
T37 sequence (Q9HAZ1 whole entry): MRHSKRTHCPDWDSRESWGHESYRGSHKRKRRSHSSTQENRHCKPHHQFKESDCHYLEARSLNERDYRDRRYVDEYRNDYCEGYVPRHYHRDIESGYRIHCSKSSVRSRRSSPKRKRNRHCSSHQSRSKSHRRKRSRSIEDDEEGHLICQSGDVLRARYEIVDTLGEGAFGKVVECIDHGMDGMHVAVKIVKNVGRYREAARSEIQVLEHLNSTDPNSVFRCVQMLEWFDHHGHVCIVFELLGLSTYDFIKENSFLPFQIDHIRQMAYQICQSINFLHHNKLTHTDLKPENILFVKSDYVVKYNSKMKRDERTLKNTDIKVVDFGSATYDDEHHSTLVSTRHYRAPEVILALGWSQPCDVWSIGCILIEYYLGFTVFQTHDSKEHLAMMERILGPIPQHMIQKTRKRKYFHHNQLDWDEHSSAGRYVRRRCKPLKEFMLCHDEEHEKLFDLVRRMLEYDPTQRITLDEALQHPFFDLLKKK
T20 sequence (P28482 whole entry): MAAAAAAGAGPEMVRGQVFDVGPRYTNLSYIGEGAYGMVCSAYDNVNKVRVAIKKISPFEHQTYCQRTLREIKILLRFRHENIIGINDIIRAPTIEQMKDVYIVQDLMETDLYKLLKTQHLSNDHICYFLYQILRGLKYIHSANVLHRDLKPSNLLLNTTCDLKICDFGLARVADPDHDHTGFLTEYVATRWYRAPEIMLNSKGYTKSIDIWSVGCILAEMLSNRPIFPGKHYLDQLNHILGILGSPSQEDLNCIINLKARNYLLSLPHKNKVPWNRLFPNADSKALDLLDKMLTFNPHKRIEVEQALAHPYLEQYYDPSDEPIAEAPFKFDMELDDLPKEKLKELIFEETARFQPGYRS
T12 sequence (P11362 22-822): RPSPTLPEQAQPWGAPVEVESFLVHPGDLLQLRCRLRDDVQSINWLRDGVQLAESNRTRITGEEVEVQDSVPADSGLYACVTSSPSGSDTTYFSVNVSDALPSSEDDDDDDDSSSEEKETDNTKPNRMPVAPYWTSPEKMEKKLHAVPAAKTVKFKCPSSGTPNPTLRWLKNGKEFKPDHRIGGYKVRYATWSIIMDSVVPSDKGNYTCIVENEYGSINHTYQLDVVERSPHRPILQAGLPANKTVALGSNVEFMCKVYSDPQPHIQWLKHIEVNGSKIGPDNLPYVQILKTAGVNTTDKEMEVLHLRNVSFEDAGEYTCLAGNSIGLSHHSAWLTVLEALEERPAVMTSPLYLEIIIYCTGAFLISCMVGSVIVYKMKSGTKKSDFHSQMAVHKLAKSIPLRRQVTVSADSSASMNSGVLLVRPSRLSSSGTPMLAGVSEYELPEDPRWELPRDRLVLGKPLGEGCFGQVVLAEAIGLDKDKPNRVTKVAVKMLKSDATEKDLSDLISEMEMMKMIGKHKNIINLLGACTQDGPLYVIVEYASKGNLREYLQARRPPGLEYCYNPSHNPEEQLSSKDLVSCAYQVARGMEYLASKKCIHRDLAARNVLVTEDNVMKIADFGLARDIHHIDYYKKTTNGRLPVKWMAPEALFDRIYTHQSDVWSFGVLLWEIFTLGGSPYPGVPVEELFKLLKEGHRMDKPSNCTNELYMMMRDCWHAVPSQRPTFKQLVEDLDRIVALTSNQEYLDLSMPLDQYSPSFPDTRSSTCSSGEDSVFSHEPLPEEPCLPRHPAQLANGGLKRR
T11 sequence (O15264 whole entry): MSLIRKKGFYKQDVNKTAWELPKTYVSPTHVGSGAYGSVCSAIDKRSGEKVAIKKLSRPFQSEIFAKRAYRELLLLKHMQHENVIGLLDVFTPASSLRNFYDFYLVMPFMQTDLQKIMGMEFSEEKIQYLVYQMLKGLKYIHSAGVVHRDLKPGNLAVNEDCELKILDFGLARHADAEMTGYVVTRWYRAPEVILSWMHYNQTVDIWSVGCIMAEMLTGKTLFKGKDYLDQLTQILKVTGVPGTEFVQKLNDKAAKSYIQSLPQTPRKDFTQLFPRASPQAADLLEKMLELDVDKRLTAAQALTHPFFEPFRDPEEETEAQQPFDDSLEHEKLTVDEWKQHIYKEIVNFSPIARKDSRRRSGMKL

## COc1cc(Nc2ncnc(Nc3cc4c(cn3)NC(=O)C(C)(C)O4)n2)cc(OC)c1OC [MT-SYK-03]
TLK1
  remaining activity at 0.5 µM: 101%
NEK7
  remaining activity at 0.5 µM: 95.9%
EPHA4
  Residual enzymatic activity: 58.1%
EPHA4; [1]
  remaining activity at 0.5 µM: > 54%
ASK1/MAP3K5
  remaining activity at 0.5 µM: 102%
PLK3
  remaining activity at 0.5 µM: 97.6%
STK32C/YANK3
  remaining activity at 0.5 µM: 115%
KHS/MAP4K5
  remaining activity at 0.5 µM: 91.8%
HIPK2
  remaining activity at 0.5 µM: 103%
IR
  remaining activity at 0.5 µM: 94.4%
MLK1/MAP3K9; [2]
  remaining activity at 0.5 µM: 21.5%
MLK1/MAP3K9; [3]
  IC50: 7.8 nM
P38d/MAPK13
  remaining activity at 0.5 µM: 119%
FGFR1
  Residual enzymatic activity: 77.5%
P38b/MAPK11
  remaining activity at 0.5 µM: 103%
GRK4
  remaining activity at 0.5 µM: 99.7%
TIE2/TEK
  Residual enzymatic activity: 92.9%
HCK; [2]
  remaining activity at 0.5 µM: 26.3%
HCK; [3]
  IC50: 53.7 nM
RAF1
  remaining activity at 0.5 µM: 91.5%
DDR2
  remaining activity at 0.5 µM: 69%
PKN2/PRK2
  remaining activity at 0.5 µM: 95.6%
ERK2/MAPK1
  remaining activity at 0.5 µM: 90.6%
CK1epsilon
  remaining activity at 0.5 µM: 98%
SRPK2
  remaining activity at 0.5 µM: 104%
ALK2/ACVR1
  remaining activity at 0.5 µM: 241%
COT1/MAP3K8
  remaining activity at 0.5 µM: 90.4%
PASK
  remaining activity at 0.5 µM: 102%
DCAMKL1
  remaining activity at 0.5 µM: 97.6%
MEKK3
  remaining activity at 0.5 µM: 116%
STK38/NDR1
  remaining activity at 0.5 µM: 112%
MRCKa/CDC42BPA
  remaining activity at 0.5 µM: 102%
SRMS
  remaining activity at 0.5 µM: 99.7%
CAMK2d
  remaining activity at 0.5 µM: 104%
MAPKAPK2
  Residual enzymatic activity: did not inhibit any
MAPKAPK2; [1]
  remaining activity at 0.5 µM: 101%
PAK5
  remaining activity at 0.5 µM: 98.5%
TYK1/LTK
  remaining activity at 0.5 µM: 92%
WNK2
  remaining activity at 0.5 µM: 84.6%
TAOK1
  remaining activity at 0.5 µM: 102%
CLK4
  remaining activity at 0.5 µM: 88.7%
c-MER
  remaining activity at 0.5 µM: 109%
TTBK2
  remaining activity at 0.5 µM: 109%
